In the supplement of paper PMC12592484:

Experiments:
Experiment in all cases: drug sensitivity score (DSS2, normalised partial AUC of dose-response, 72 h CellTiter-Glo viability) (DSS (dimensionless)); higher = more sensitive (stronger growth inhibition / cytotoxicity); extreme values may be limits of the assay
22Rv1 = system: 22Rv1
Summary of the method: (§1)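 The drug sensitivity score reported here is a partial area under the fitted logistic dose–response curve, divided by the log of the curve's upper asymptote and computed in BREEZE; higher values denote greater sensitivity. Low-passage primary prostate cancer-associated fibroblasts, PF179T, WPMY-1, LNCaP and 22Rv1 cells were seeded into 384-well plates preloaded with compounds at five doses across a 10,000-fold range. CellTiter-Glo 2.0 luminescence gave viability at 72 h, scaled to vehicle and positive-control wells.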

CAF#1 = system: CAF#1 (primary prostate cancer-associated fibroblasts of myCAF-like type)
Summary of the method: as §1

CAF#2 = system: CAF#2 (primary prostate cancer-associated fibroblasts of iCAF-like type)
Summary of the method: as §1

CAF#3 = system: CAF#3 (primary prostate cancer-associated fibroblasts of myCAF-like type)
Summary of the method: as §1

CAF#4 = system: CAF#4 (primary prostate cancer-associated fibroblasts of iCAF-like type)
Summary of the method: as §1

CAF#5 = system: CAF#5 (primary prostate cancer-associated fibroblasts of myCAF-like type)
Summary of the method: as §1

CAF#6 = system: CAF#6 (primary prostate cancer-associated fibroblasts of iCAF-like type)
Summary of the method: as §1

CAF#7 = system: CAF#7 (primary prostate cancer-associated fibroblasts of myCAF-like type)
Summary of the method: as §1

LNCAP = system: LNCAP
Summary of the method: as §1

PF179T = system: PF179T
Summary of the method: as §1

WPMY-1 = system: WPMY-1
Summary of the method: as §1

Row | Compound | drug sensitivity score (22Rv1) | drug sensitivity score (CAF#1) | drug sensitivity score (CAF#2) | drug sensitivity score (CAF#3) | drug sensitivity score (CAF#4) | drug sensitivity score (CAF#5) | drug sensitivity score (CAF#6) | drug sensitivity score (CAF#7) | drug sensitivity score (LNCAP) | drug sensitivity score (PF179T) | drug sensitivity score (WPMY-1)
1 | CC(=O)Nc1ccc(C(=O)Nc2ccccc2N)cc1 [Tacedinaline] (tested concentration range 0.1-1000 nM) | 0.1 | 1.8 | 2.3 | 3.3 | 0.5 | 2.5 | 0 | 0.6 | 0.6 | 0.9 | 0
2 | C=CC[C@@H]1/C=C(\C)C[C@H](C)C[C@H](OC)[C@H]2O[C@@](O)(C(=O)C(=O)N3CCCC[C@H]3C(=O)O[C@H](/C(C)=C/[C@@H]3CC[C@@H](O)[C@H](OC)C3)[C@H](C)[C@@H](O)CC1=O)[C@H](C)C[C@@H]2OC [Tacrolimus] (tested concentration range 1-10000 nM) | 2.3 | 0.9 | 2.7 | 0.2 | 0 | 0.9 | 2.3 | 2 | 6.8 | 0 | 1
3 | Cn1ncnc1[C@H]1c2n[nH]c(=O)c3cc(F)cc(c23)N[C@@H]1c1ccc(F)cc1 [Talazoparib] (tested concentration range 0.1-1000 nM) | 11.5 | 4.9 | 8 | 2.1 | 3.4 | 6.2 | 1.6 | 2.9 | 15.3 | 11.2 | 4
4 | C[C@@H]1CN(Cc2ccc(F)cc2)[C@@H](C)CN1C(=O)c1cc2c(C(=O)C(=O)N(C)C)cn(C)c2cc1Cl [Talmapimod] (tested concentration range 1-10000 nM) | 0 | 0 | 0 | 0 | 0 | 0 | 0 | 0 | 1.9 | 0 | 0
5 | COc1cc(Nc2ncc(F)c(Nc3ccc4c(n3)NC(=O)C(C)(C)O4)n2)cc(OC)c1OC [Tamatinib] (tested concentration range 1-10000 nM) | 0 | 10.9 | 9.7 | 1.7 | 5.8 | 6.4 | 0.8 | 3.2 | 0.8 | 8 | 6
6 | CC/C(=C(\c1ccccc1)c1ccc(OCCN(C)C)cc1)c1ccccc1 [Tamoxifen] (tested concentration range 1-10000 nM) | 3.7 | 0.1 | 1.3 | 2.5 | 1.1 | 2 | 2.6 | 1.9 | 4.1 | 0 | 5
7 | O[C@H]1CC[C@H](Nc2ncc3nc(Nc4c(F)cc(F)cc4F)n([C@H]4CCOC4)c3n2)CC1 [Tanzisertib] (tested concentration range 1-10000 nM) | 0 | 0 | 0 | 3.3 | 0 | 0 | 0.2 | 0 | 1.3 | 0 | 0
8 | COc1cccc2c1c(O)c(C(=O)N(C)c1ccc(C(F)(F)F)cc1)c(=O)n2C [Tasquinimod] (tested concentration range 1-10000 nM) | 0 | 0.3 | 3.5 | 0 | 0 | 3.4 | 4.4 | 5.8 | 0 | 0.4 | 0
9 | CCN(c1cc(-c2ccc(CN3CCOCC3)cc2)cc(C(=O)NCc2c(C)cc(C)[nH]c2=O)c1C)C1CCOCC1 [Tazemetostat] (tested concentration range 1-10000 nM) | 0 | 1 | 1.8 | 1.2 | 0.4 | 0.9 | 0.7 | 0 | 1.9 | 0 | 0
10 | Cn1nnc2c(C(N)=O)ncn2c1=O [Temozolomide] (tested concentration range 10-100000 nM) | 0 | 0 | 0 | 0 | 0 | 0 | 0 | 0 | 0 | 0 | 0
11 | CO[C@H]1C[C@@H]2CC[C@@H](C)[C@@](O)(O2)C(=O)C(=O)N2CCCC[C@H]2C(=O)O[C@H]([C@H](C)C[C@@H]2CC[C@@H](OC(=O)C(C)(CO)CO)[C@H](OC)C2)CC(=O)[C@H](C)/C=C(\C)[C@@H](O)[C@@H](OC)C(=O)[C@H](C)C[C@H](C)/C=C/C=C/C=C/1C [Temsirolimus] (tested concentration range 0-100 nM) | 16.7 | 10.6 | 10.1 | 4 | 9.9 | 11.8 | 5.5 | 6 | 11 | 9.8 | 6.6
12 | COc1cc([C@@H]2c3cc4c(cc3[C@@H](O[C@@H]3O[C@@H]5CO[C@@H](c6cccs6)O[C@H]5[C@H](O)[C@H]3O)[C@H]3COC(=O)[C@H]23)OCO4)cc(OC)c1O [Teniposide] (tested concentration range 1-10000 nM) | 0 | 0 | 0 | 0 | 0 | 0 | 0 | 0 | 0 | 0 | 0
13 | CN1CCC(COc2cnc(-c3cccc(Cn4nc(-c5cccc(C#N)c5)ccc4=O)c3)nc2)CC1 [Tepotinib] (tested concentration range 0.1-1000 nM) | 0 | 0 | 3.4 | 0 | 0.5 | 3 | 0 | 0 | 0 | 2.4 | 0.7
14 | O=C1CCC(N2C(=O)c3ccccc3C2=O)C(=O)N1 (configuration not stated) [Thalidomide] (tested concentration range 1-10000 nM) | 0 | 0 | 0 | 0 | 0 | 0 | 0 | 0 | 0 | 0 | 0
15 | Nc1nc2[nH]cnc2c(=S)[nH]1 [Thioguanine] (tested concentration range 1-10000 nM) | 8.8 | 1.1 | 3.6 | 0.2 | 2.9 | 1.8 | 3.7 | 4.9 | 0.4 | 4.9 | 11.8
16 | O=c1sn(-c2cccc3ccccc23)c(=O)n1Cc1ccccc1 [Tideglusib] (tested concentration range 0.3-3000 nM) | 0 | 0 | 0.8 | 0 | 0 | 0 | 2.3 | 1.6 | 0 | 0 | 0
17 | Cn1cncc1[C@@](N)(c1ccc(Cl)cc1)c1ccc2c(c1)c(-c1cccc(Cl)c1)cc(=O)n2C [Tipifarnib] (tested concentration range 1-10000 nM) | 13.8 | 2.1 | 7.6 | 7.3 | 7 | 4.8 | 3.2 | 1.4 | 14.8 | 4.6 | 9.8
18 | COc1cc2nccc(Oc3ccc(NC(=O)Nc4cc(C)on4)c(Cl)c3)c2cc1OC [Tivozanib] (tested concentration range 1-10000 nM) | 1.6 | 6.2 | 7.7 | 6 | 4.6 | 6.9 | 4.2 | 6 | 4.8 | 3 | 4.6
19 | C[C@@H]1CCN(C(=O)CC#N)C[C@@H]1N(C)c1ncnc2[nH]ccc12 [Tofacitinib] (tested concentration range 0.5-5000 nM) | 0 | 1.3 | 1 | 1.6 | 0 | 0.4 | 0 | 0.1 | 0 | 0 | 0
20 | CC[C@@]1(O)C(=O)OCc2c1cc1n(c2=O)Cc2cc3c(CN(C)C)c(O)ccc3nc2-1 [Topotecan] (tested concentration range 1-10000 nM) | 24.5 | 8.9 | 10.3 | 4.8 | 8.1 | 6.9 | 4.8 | 5.3 | 22.7 | 8.7 | 14.6
21 | CC(C)C[C@@H](C(=O)N[C@H](C(=O)OC1CCCC1)c1ccccc1)[C@H](O)C(=O)NO [Tosedostat] (tested concentration range 1-10000 nM) | 4.4 | 0 | 0.6 | 1 | 0 | 3.5 | 2.7 | 5.1 | 8.6 | 1.2 | 9.3
22 | Cc1cc(Nc2cc(N3CCN(C)CC3)nc(Sc3ccc(NC(=O)C4CC4)cc3)n2)n[nH]1 [Tozasertib] (tested concentration range 1-10000 nM) | 5.5 | 3.2 | 8.4 | 4.9 | 3.2 | 3.5 | 3 | 4.7 | 7 | 8.2 | 14.5
